Results as given in publication PMC4303209, “A novel phosphatidylinositol 3-kinase (PI3K) inhibitor directs a potent FOXO-dependent, p53-independent cell cycle arrest phenotype characterized by the differential induction of a subset of FOXO-regulated genes” (Breast Cancer Research : BCR, 2014).

System: MCF-7 breast cancer cells
Test: Microarray gene expression analysis (Agilent whole human genome 4 x 44K; compound vs DMSO, LIMMA log2 fold change)
Format: cell-based
[1] = MCF-7, 100nM, six hours, 1.5-fold expression change threshold

## Oc1cccc(-c2nc(N3CCOCC3)c3oc4ncccc4c3n2)c1 [PI-103]
Gene 114799, cell cycle genes
  ESCO1 log2FC: 0.45
Gene 115426, cell cycle genes
  UHRF2 log2FC: 0.51
Gene 116138, cell cycle genes
  KLHDC3 log2FC: 0.0341
Gene 116840, cell cycle genes
  CNTROB log2FC: 0.23
Gene 121441, cell cycle genes
  NEDD1 log2FC: 0.35
Gene 124790, cell cycle genes
  HEXIM2 log2FC: 0.87
Gene 127829, cell cycle genes
  ARL8A log2FC: 0.56
Gene 127933, cell cycle genes
  UHMK1 log2FC: -0.17
Gene 128239, cell cycle genes
  IQGAP3 log2FC: 0.35
Gene 129401, cell cycle genes
  NUP35 log2FC: -0.36
Gene 129531, cell cycle genes
  MITD1 log2FC: 0.71
Gene 131870, cell cycle genes
  NUDT16 log2FC: -0.23
Gene 132625, cell cycle genes
  ZFP42 log2FC: -0.0323
Gene 133746, cell cycle genes
  JMY log2FC: 1.01
Gene 135458, cell cycle genes
  HUS1B log2FC: -0.84
Gene 140609, cell cycle genes
  NEK7 log2FC: 0.11
Gene 140690, cell cycle genes
  CTCFL log2FC: -0.0211
Gene 143471, cell cycle genes
  PSMA8 log2FC: 0.0738
Gene 143686, cell cycle genes
  SESN3 log2FC: 0.12
Gene 143689, cell cycle genes
  PIWIL4 log2FC: 0.27
Gene 144455, cell cycle genes
  E2F7 log2FC: -0.38
Gene 144715, cell cycle genes
  RAD9B log2FC: -0.00292
Gene 147040, cell cycle genes
  KCTD11 log2FC: 0.28
Gene 149628, cell cycle genes
  PYHIN1 log2FC: -0.0139
Gene 151242, cell cycle genes
  PPP1R1C log2FC: 0.09
Gene 151246, cell cycle genes
  SGOL2 log2FC: 0.87
Gene 151648, cell cycle genes
  SGOL1 log2FC: 0.42
Gene 152015, cell cycle genes
  ROPN1B log2FC: 0.0015
Gene 153090, cell cycle genes
  DAB2IP log2FC: 0.03
Gene 157313, cell cycle genes
  CDCA2 log2FC: 0.46
Gene 157570, cell cycle genes
  ESCO2 log2FC: 0.48
Gene 163786, cell cycle genes
  SASS6 log2FC: 0.49
Gene 164684, cell cycle genes
  WBP2NL log2FC: -0.0843
Gene 168451, cell cycle genes
  THAP5 log2FC: 0.10
Gene 201163, cell cycle genes
  FLCN log2FC: 0.78
Gene 201254, cell cycle genes
  STRA13 log2FC: -0.39
Gene 203068, cell cycle genes
  TUBB log2FC: -0.55
Gene 221035, cell cycle genes
  REEP3 log2FC: -0.29
Gene 221477, cell cycle genes
  C6orf89 log2FC: -0.38
Gene 245711, cell cycle genes
  SPDYA log2FC: -0.01
Gene 246184, cell cycle genes
  CDC26 log2FC: -0.67
Gene 259266, cell cycle genes
  ASPM log2FC: 1.14
Gene 283375, cell cycle genes
  SLC39A5 log2FC: 0.05
Gene 283431, cell cycle genes
  GAS2L3 log2FC: 0.53
Gene 286053, cell cycle genes
  NSMCE2 log2FC: 0.84
Gene 286826, cell cycle genes
  LIN9 log2FC: 1.23
Gene 339967, cell cycle genes
  TMPRSS11A log2FC: 0.0013
Gene 348995, cell cycle genes
  NUP43 log2FC: 0.24
Gene 378708, cell cycle genes
  APITD1 log2FC: 0.07
Gene 387893, cell cycle genes
  SETD8 log2FC: -0.04
Gene 415116, cell cycle genes
  PIM3 log2FC: 0.64
Gene 440822, cell cycle genes
  PIWIL3 log2FC: -0.09
MCF-7
  expression of FOXO-dependent apoptosis genes including TNFSF10, BCL211 and FASLG (array): did not significantly change
[1]
  number of differentially expressed genes: more than 2,000
  number of induced (upregulated) genes: 1,293
  number of repressed (downregulated) genes: 886
MCF-7, FOXO target genes
  CCND1, SPRY2 and MMP9 expression (array): significantly downregulated
  expression of CCNG2, KLHL24, DDIT3, CITED2 and RICTOR (array): significantly upregulated
Cell cycle genes
  MAD1L1 log2FC: -0.14
Gene ACSL5 (51703), apoptosis genes
  ACSL5 log2FC: 0.058
Gene ACTR1A (Gene 10121), cell cycle genes
  log2FC: -0.13
Gene ADAMTS20 (80070), apoptosis genes
  ADAMTS20 log2FC: -0.005
Gene ADIPOQ (9370), apoptosis genes
  ADIPOQ log2FC: -0.040
Gene ADRA1A (148), apoptosis genes
  ADRA1A log2FC: 0.010
Gene AGTR2 (186), apoptosis genes
  AGTR2 log2FC: 0.044
Gene AKAP8 (Gene 10270), cell cycle genes
  log2FC AKAP8: -0.20
Gene ALB (213), apoptosis genes
  ALB log2FC: -0.044
Gene ALOX12 (239), apoptosis genes
  ALOX12 log2FC: -0.144
Gene ALX3 (257), apoptosis genes
  ALX3 log2FC: 0.013
Gene ALX4 (60529), apoptosis genes
  ALX4 log2FC: -0.036
Gene ANAPC13 (Gene 25847), cell cycle genes
  log2FC: -0.30
Gene ANKRD13C (81573), apoptosis genes
  ANKRD13C log2FC: -0.007
Gene APBB1 (322), apoptosis genes
  APBB1 log2FC: 0.356
Gene APOH (350), apoptosis genes
  APOH log2FC: 0.052
Gene AQP1 (358), apoptosis genes
  AQP1 log2FC: -0.011
Gene ARHGAP10 (79658), apoptosis genes
  ARHGAP10 log2FC: -0.061
Gene ARHGEF6 (9459), apoptosis genes
  ARHGEF6 log2FC: -0.152
Gene ARHGEF16 (27237), apoptosis genes
  ARHGEF16 log2FC: 0.275
